# Peptide text beside a SMILES is read from it.
# Experiments:
# [1] = system: human peripheral blood mononuclear cells; assay type: cell-based
# Procedure: FIG. 18. Lack of cytotoxicity of immunomodulatory peptides against human peripheral blood mononuclear cells as determined by the low release of cytosolic lactate dehydrogenase.
# Venous blood (20 ml) from healthy volunteers was collected in Vacutainer® collection tubes containing sodium heparin as an anticoagulant (Becton Dickinson, Mississauga, ON) in accordance with UBC ethical approval and guidelines. Blood was diluted 1:1 with complete RPMI 1640 medium and separated by centrifugation over a Ficoll-Paque® Plus (Amersham Biosciences, Piscataway, N.J., USA) density gradient. White blood cells were isolated from the buffy coat, washed twice in RPMI 1640 complete medium, and the number of peripheral blood mononuclear cells (PBMC) was determined by Trypan blue exclusion. PBMC (5×10^5) were seeded into 12-well tissue culture dishes (Falcon; Becton Dickinson) at 0.75 to 1×10^6 cells/ml at 37° C. in 5% CO2. The above conditions were chosen to mimic conditions for circulating blood monocytes entering tissues at the site of infection via extravasation.
# Following incubation of the cells under various treatment regimens, the tissue culture supernatants were centrifuged at 1000×g for 5 min, then at 10,000×g for 2 min to obtain cell-free samples. […]
# Cytotoxicity was assessed using the Lactate dehydrogenase assay. […] Amount of colour formed is detected as increased absorbance measured at […]. […]
# P. aeruginosa = settings: de la Fuente-Núñez 2012; cited from earlier work
# [2] = system: Pseudomonas aeruginosa (Pa) biofilm; settings: P. aeruginosa; de la Fuente-Núñez 2012; cited from earlier work
# G. mellonella = G. mellonella survival, uninfected (peptide toxicity); assay type: in vivo; settings: peptide 20 μg/10 μl
# Procedure: In brief, prior to injection in G. mellonella, bacterial cells were washed with PBS and then diluted to either 10^4 or 10^5 CFU per 10 μl. A Hamilton syringe was used to inject 10 μl in the G. mellonella last left proleg. The peptides (20 μg/10 μl) were administered by injecting 10 μl into a different proleg within 1 h after injecting the bacteria. Two control groups were used: the first group included uninfected larvae injected with PBS to monitor killing due to physical trauma; the second group included uninfected larvae receiving no treatment at all. Results from experiments in which one or more larvae in either control group died were discarded and the experiments were repeated. To evaluate the toxicity of the peptides, uninfected larvae were injected with peptides. Larvae were placed in the dark at 37° C. and were scored as dead or alive 24 h and 48 h post-infection. […] At least 20 larvae were injected for each treatment. For each treatment, data from at least six independent experiments were combined.
# [3] = system: Klebsiella pneumoniae (Kp) biofilm; assay type: cell-based; settings: peptide 10 μg/ml
# Procedure: Methods of assessment of anti-biofilm activity—Biofilm formation was initially analyzed using a static abiotic solid surface assay as described elsewhere (de la Fuente-Nunez et al., 2012). Dilutions (1/100) of overnight cultures were incubated in BM2 biofilm-adjusted medium [62 mM potassium phosphate buffer (pH 7), 7 mM (NH4)2SO4, 2 mM MgSO4, 10 μM FeSO4, 0.4% (wt/vol) glucose, 0.5% (wt/vol) Casamino Acids], or a nutrient medium such as Luria Broth, in polypropylene microtiter plates (Falcon, United States) in the absence (control) or presence of peptide. Peptide was added at time zero (prior to adding the diluted, overnight cultures) in varying concentrations, and the decrease in biofilm formation was recorded at 22-46 h for most bacteria. Planktonic cells were removed, biofilm cells adhering to the side of the tubes were stained with crystal violet, and absorbance at 595 nm was measured using a microtiter plate reader (Bio-Tek Instruments Inc., United States). Some peptides were screened against two Gram negative organisms, P. aeruginosa and K. pneumoniae using a Bioflux apparatus (AutoMate Scientific, Berkeley, Calif.; http://www.autom8.com/bioflux_biofilm.html), which allows for the high-throughput, real-time analysis of biofilms.
# [4] = system: Pseudomonas aeruginosa (Pa) biofilm; test: static abiotic solid surface (microtiter, crystal violet) / Bioflux biofilm inhibition screen; assay type: cell-based; settings: peptide 10 μg/ml
# Outline: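 Overnight cultures diluted 1/100 were grown in polypropylene microtiter plates in BM2 medium (pH 7, 0.4% glucose, 0.5% Casamino Acids) or Luria Broth, with peptide at varying concentrations added at time zero. After 22-46 h, adherent biofilm was stained with crystal violet and read at 595 nm. Selected peptides were also screened under flow in a Bioflux system.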
# [5] = system: methicillin resistant S. aureus (Sa) biofilm; assay type: cell-based, Staphylococcus aureus; settings: peptide 5 μg/ml
# P. aeruginosa biofilms = settings: compound alone; P. aeruginosa
# Procedure: Peptides and various conventional antibiotics were analyzed by checkerboard titration into microtiter trays using CLSI methods (Wiegand, I., K. Hilpert, and R. E. W. Hancock. 2008. Nature Protocols 3:163-175), bacteria added and, after overnight incubation at 37° C., the residual biofilm assessed by the crystal violet method mentioned in the body of the grant, with an A595 of 0.2 considered as 100% biofilm inhibition. The effects of the peptide in reducing the minimal biofilm inhibitory concentration (MBIC) of the antibiotic and vice versa were assessed using the Fractional Inhibitory Concentration (FIC) method whereby ΣFTC=FICA+FICB=(CA/MICA)+(CB/MICB), where MBICA and MBICB are the MBICs of peptide A and antibiotic B alone, respectively, and CA and CB (expressed in μg/ml) are the MICs of the drugs in combination. This conventional clinical microbiology assay is interpreted as follows
# C. elegans = C. elegans survival, uninfected (peptide toxicity); settings: peptide 20 μg/ml
# Procedure: The C. elegans survival assay was carried out as previously described (Brackman et al., 2011). […] 0.5 ml of this suspension of nematodes was transferred to the wells of a 24-well microtiter plate. An overnight bacterial culture was centrifuged, resuspended in the assay medium, and standardized to 10^8 CFU/ml. Next, 250 μl of this standardized suspension were added to each well, while 250 μl of sterile medium was added to the […]. Peptides were added to the test wells at a final concentration of 20 μg/ml. The assay plates were incubated at 25° C. for up to 2 days. The fraction of dead worms was determined by counting the number of dead worms and the total number of worms in each well, using a dissecting microscope. Peptides were tested at least four times in each assay, and each assay was repeated at least three times (n≥12).
# P. aeruginosa biofilm = assay type: cell-based; settings: concentration that reduced biofilm growth by 50%
# S. aureus biofilm = assay type: cell-based; settings: concentration that reduced biofilm growth by 50%
smiles,measurement,setting,value
CC[C@H](C)[C@H](NC(=O)[C@H](CC(C)C)NC(=O)[C@@H](NC(=O)[C@H](CCCNC(=N)N)NC(=O)[C@@H](NC(=O)[C@@H](NC(=O)[C@H](CCCNC(=N)N)NC(=O)[C@H](CCCNC(=N)N)NC(=O)[C@@H](N)C(C)C)[C@@H](C)CC)C(C)C)C(C)C)C(=O)N[C@@H](CCCNC(=N)N)C(=O)N[C@@H](Cc1c[nH]c2ccccc12)C(=O)N[C@@H](C)C(N)=O [HE8] (H-VRRIVRVLIRWA-NH2),Notes (toxicity),[1],Toxic
CC[C@H](C)[C@H](NC(=O)[C@H](CCCNC(=N)N)NC(=O)[C@H](Cc1ccccc1)NC(=O)[C@H](CCCNC(=N)N)NC(=O)[C@@H](N)CCCCN)C(=O)N[C@@H](CCCNC(=N)N)C(=O)N[C@H](C(=O)N[C@@H](CCCNC(=N)N)C(=O)N[C@H](C(N)=O)C(C)C)C(C)C [Peptide 1037] (H-KRFRIRVRV-NH2; N-terminus assumed),antimicrobial activity MIC,P. aeruginosa,304 µg/mL
same,anti-biofilm activity IC50,[2],5 µg/mL
CC[C@H](C)[C@H](NC(=O)[C@H](CCCNC(=N)N)NC(=O)[C@@H](NC(=O)[C@H](C)NC(=O)[C@@H](NC(=O)[C@@H](NC(=O)[C@H](CC(C)C)NC(=O)[C@H](CCCNC(=N)N)NC(=O)[C@@H](N)C(C)C)[C@@H](C)CC)C(C)C)C(C)C)C(=O)N[C@@H](Cc1c[nH]c2ccccc12)C(=O)N[C@@H](CCCNC(=N)N)C(=O)N[C@@H](CCCNC(=N)N)C(N)=O [Peptide 1018] (H-VRLIVAVRIWRR-NH2),"G. mellonella survival, No infection",G. mellonella; 24 h,90 ± 14%
same,"G. mellonella survival, No infection",G. mellonella; 48 h,90 ± 14%
same,% Biofilm Inhibition Kp,[3],99%
same,% Biofilm Inhibition Pa,[4],99%
same,% Biofilm Inhibition Sa,[5],67%
same,Minimal Biofilm Inhibitory Concentration (MBIC),P. aeruginosa biofilms,24 µg/mL
same,"C. elegans survival, No infection",C. elegans; 24 h,97 ± 4%
same,"C. elegans survival, No infection",C. elegans; 48 h,88 ± 9%
same,MBIC50 P. aeruginosa,P. aeruginosa biofilm,2.5 µg/mL
same,MBIC50 S. aureus,S. aureus biofilm,20 µg/mL

# From US20190315823A1, “SMALL CATIONIC ANTI-BIOFILM AND IDR PEPTIDES” (priority 2013, published 2019)
